Experimental data published in patent US20120231141A1, “BITTERNESS-IMPROVING AGENT FOR BITTER FOOD AND DRINK AND ASTRINGENCY-IMPROVING AGENT FOR ASTRINGENT FOOD AND DRINK” (priority 2009, published 2012).

How the values were obtained:
[1] = Bitterness evaluation of carbonated water (flavor comparison by 10 panelists); type: in vivo; conditions: for A: the number of panelists who felt no difference from sedanenolide-free / B: the number of panelists who felt some reduction in bitterness / Flavor judgment: the number of panelists who judged it as most proper bitterness / N: the number of panelists who hardly felt bitterness: 10 panelists
Experimental: Sedanenolide was added as a bitterness-improving agent (masking agent for bitterness) of the present invention to sufficiently deaerated pure water at the concentrations shown in the following Table 4, and then carbon dioxide gas was sealed in each bottle at a pressure of 294 KPa to obtain carbonated water of the present invention.

[2] = Astringency evaluation of green tea drink (flavor comparison by 10 panelists); type: in vivo; conditions: for A: the number of panelists who felt no difference from sedanenolide-free / B: the number of panelists who felt some reduction in astringency / Flavor judgment: the number of panelists who judged it as most proper astringency / N: the number of panelists who hardly felt astringency: 10 panelists
Experimental: Five thousand grams of hot water (containing 0.03% of sodium ascorbate) of 95° C. was added to 100 g of domestic green tea (second picking tea), followed by extraction for 5 min while sometimes stirring. Subsequently, solid-liquid separation with flannel filter was performed to obtain 4500 g of an extract (Bx 0.7°). This extract was adjusted to Bx 0.5° with deionized water to obtain green tea extract having strong astringency. Sedanenolide was added as a taste-improving agent (masking agent for astringency) of the present invention to the resulting extract at the concentrations shown in the following Table 4 to obtain green tea drinks.

[3] = sedanenolide 0.01 ppb in carbonated water
[4] = sedanenolide 0.01 ppm in carbonated water
[5] = sedanenolide 0.1 ppb in carbonated water
[6] = sedanenolide 0.1 ppm in carbonated water
[7] = sedanenolide 1 ppb in carbonated water
[8] = sedanenolide 1 ppm in carbonated water
[9] = sedanenolide 1 ppt in carbonated water
[10] = sedanenolide 10 ppm in carbonated water
[11] = sedanenolide 0.01 ppb in green tea drink having strong astringency
[12] = sedanenolide 0.01 ppm in green tea drink having strong astringency
[13] = sedanenolide 0.1 ppb in green tea drink having strong astringency
[14] = sedanenolide 0.1 ppm in green tea drink having strong astringency
[15] = sedanenolide 1 ppb in green tea drink having strong astringency
[16] = sedanenolide 1 ppm in green tea drink having strong astringency
[17] = sedanenolide 1 ppt in green tea drink having strong astringency
[18] = sedanenolide 10 ppm in green tea drink having strong astringency

CCCC[C@@H]1OC(=O)C2=C1CCC=C2 [sedanenolide]
overall result of bitterness masking ([1]; amount of sedanenolide about 0.1 ppb to 1 ppm, carbonated water): particularly good results were obtained | bitterness of carbonated water (judgment) ([1]; carbonated water containing 0.01 ppb to 10 ppm of sedanenolide): masked | A: the number of panelists who felt no difference from sedanenolide-free [1, 3]: 7 | B: the number of panelists who felt some reduction in bitterness [1, 3]: 3 | Flavor judgment: the number of panelists who judged it as most proper bitterness [1, 3]: 0 | N: the number of panelists who hardly felt bitterness [1, 3]: 0 | reduction in bitterness at low concentration ([1]; sedanenolide 0.01 ppb, carbonated water): some panelists felt some reduction in bitterness | A: the number of panelists who felt no difference from sedanenolide-free [1, 4]: 2 | B: the number of panelists who felt some reduction in bitterness [1, 4]: 2 | Flavor judgment: the number of panelists who judged it as most proper bitterness [1, 4]: 1 | N: the number of panelists who hardly felt bitterness [1, 4]: 6 | A: the number of panelists who felt no difference from sedanenolide-free [1, 5]: 5 | B: the number of panelists who felt some reduction in bitterness [1, 5]: 5 | Flavor judgment: the number of panelists who judged it as most proper bitterness [1, 5]: 0 | N: the number of panelists who hardly felt bitterness [1, 5]: 0 | A: the number of panelists who felt no difference from sedanenolide-free [1, 6]: 0 | B: the number of panelists who felt some reduction in bitterness [1, 6]: 3 | Flavor judgment: the number of panelists who judged it as most proper bitterness [1, 6]: 4 | N: the number of panelists who hardly felt bitterness [1, 6]: 7 | A: the number of panelists who felt no difference from sedanenolide-free [1, 7]: 4 | B: the number of panelists who felt some reduction in bitterness [1, 7]: 6 | Flavor judgment: the number of panelists who judged it as most proper bitterness [1, 7]: 0 | N: the number of panelists who hardly felt bitterness [1, 7]: 0 | A: the number of panelists who felt no difference from sedanenolide-free [1, 8]: 0 | B: the number of panelists who felt some reduction in bitterness [1, 8]: 3 | Flavor judgment: the number of panelists who judged it as most proper bitterness [1, 8]: 5 | N: the number of panelists who hardly felt bitterness [1, 8]: 7 | A: the number of panelists who felt no difference from sedanenolide-free [1, 9]: 10 | B: the number of panelists who felt some reduction in bitterness [1, 9]: 0 | Flavor judgment: the number of panelists who judged it as most proper bitterness [1, 9]: 0 | N: the number of panelists who hardly felt bitterness [1, 9]: 0 | A: the number of panelists who felt no difference from sedanenolide-free [1, 10]: 0 | B: the number of panelists who felt some reduction in bitterness [1, 10]: 2 | Flavor judgment: the number of panelists who judged it as most proper bitterness [1, 10]: 0 | N: the number of panelists who hardly felt bitterness [1, 10]: 8 | overall result of astringency masking ([2]; amount of sedanenolide about 0.1 ppb to 1 ppm, green tea drink): particularly good results were obtained | astringency of green tea drink (judgment) ([2]; green tea drink containing 0.01 ppb to 10 ppm of sedanenolide): masked | A: the number of panelists who felt no difference from sedanenolide-free [2, 11]: 8 | B: the number of panelists who felt some reduction in astringency [2, 11]: 2 | Flavor judgment: the number of panelists who judged it as most proper astringency [2, 11]: 0 | N: the number of panelists who hardly felt astringency [2, 11]: 0 | reduction in bitterness at low concentration ([2]; sedanenolide 0.01 ppb, green tea drink having strong astringency): some panelists felt some reduction in bitterness | A: the number of panelists who felt no difference from sedanenolide-free [2, 12]: 3 | B: the number of panelists who felt some reduction in astringency [2, 12]: 6 | Flavor judgment: the number of panelists who judged it as most proper astringency [2, 12]: 2 | N: the number of panelists who hardly felt astringency [2, 12]: 1 | A: the number of panelists who felt no difference from sedanenolide-free [2, 13]: 6 | B: the number of panelists who felt some reduction in astringency [2, 13]: 3 | Flavor judgment: the number of panelists who judged it as most proper astringency [2, 13]: 0 | N: the number of panelists who hardly felt astringency [2, 13]: 1 | A: the number of panelists who felt no difference from sedanenolide-free [2, 14]: 0 | B: the number of panelists who felt some reduction in astringency [2, 14]: 3 | Flavor judgment: the number of panelists who judged it as most proper astringency [2, 14]: 5 | N: the number of panelists who hardly felt astringency [2, 14]: 7 | A: the number of panelists who felt no difference from sedanenolide-free [2, 15]: 5 | B: the number of panelists who felt some reduction in astringency [2, 15]: 5 | Flavor judgment: the number of panelists who judged it as most proper astringency [2, 15]: 0 | N: the number of panelists who hardly felt astringency [2, 15]: 0 | A: the number of panelists who felt no difference from sedanenolide-free [2, 16]: 0 | B: the number of panelists who felt some reduction in astringency [2, 16]: 3 | Flavor judgment: the number of panelists who judged it as most proper astringency [2, 16]: 3 | N: the number of panelists who hardly felt astringency [2, 16]: 7 | A: the number of panelists who felt no difference from sedanenolide-free [2, 17]: 10 | B: the number of panelists who felt some reduction in astringency [2, 17]: 0 | Flavor judgment: the number of panelists who judged it as most proper astringency [2, 17]: 0 | N: the number of panelists who hardly felt astringency [2, 17]: 0 | A: the number of panelists who felt no difference from sedanenolide-free [2, 18]: 0 | B: the number of panelists who felt some reduction in astringency [2, 18]: 2 | Flavor judgment: the number of panelists who judged it as most proper astringency [2, 18]: 0 | N: the number of panelists who hardly felt astringency [2, 18]: 8
